Laboratory results taken from patent publication US12297453B2, “Generation of norepinephrine neurons from human stem cells” (Wisconsin Alumni Research Foundation, priority 2020, dated 2025).

Columns and labels:
[1] = system: human ESC-derived NE neurons; experiment: Whole-cell patch clamp recording of spontaneous action potential firing; format: cell-based; conditions: 1 mM; reversed upon washing away
Protocol: gRNA was designed according to Benchling. Donor plasmid was generated by NEBuilder® HiFi DNA Assembly Master Mix (NEB, E2621S). Briefly, hPSCs were digested by TrypLE Express. Gene Pulser Xcell (Bio-Rad) was used for CRISPR/Cas9 delivery. Two-million cells were electroporated with 15 μg of sgRNA plasmid (pLenti-CRISPR) with 30 μg donor plasmid. Cells were plated at ˜150,000 cells/well of 6-well plate. Starting 24 hours after electroporation, 0.5 μg/ml puromycin were added to the culture medium. After 3 days of puromycin selection, hPSCs were switched to their normal culture medium and fed every other day until approximately 1-2 weeks after electroporation when distinct colonies were established. • Cell transplantation: Small aggregates of NE neural progenitors (day 10-day 12) were collected and suspended in artificial cerebral spinal fluid (aCSF) containing Rock inhibitor (0.5 μM), at a concentration of 100,000 cells/μl. 1 μl of cells were slowly injected into the left cortex (AP=+0.0 mm, ML=+1.8 mm, DV=−1.7 mm, from skull) of adult SCID mice (8-12 weeks) that were anesthetized with 1%-2% isoflurane mixed in oxygen. • Immunocytochemistry and flow cytometry: Immunocytochemistry was performed as described previously. […] After the last wash, cells were suspended in washing buffer and analyzed by flow cytometry (BD LSR or BD LSRII). […]

hESC-derived NE neurons = experiment: NE content in supernatant of NE neuron culture by ELISA; format: cell-based, human
Protocol: gRNA was designed according to Benchling. Donor plasmid was generated by NEBuilder® HiFi DNA Assembly Master Mix (NEB, E2621S). Briefly, hPSCs were digested by TrypLE Express. Gene Pulser Xcell (Bio-Rad) was used for CRISPR/Cas9 delivery. Two-million cells were electroporated with 15 μg of sgRNA plasmid (pLenti-CRISPR) with 30 μg donor plasmid. Cells were plated at ˜150,000 cells/well of 6-well plate. Starting 24 hours after electroporation, 0.5 μg/ml puromycin were added to the culture medium. After 3 days of puromycin selection, hPSCs were switched to their normal culture medium and fed every other day until approximately 1-2 weeks after electroporation when distinct colonies were established. • Cell transplantation: Small aggregates of NE neural progenitors (day 10-day 12) were collected and suspended in artificial cerebral spinal fluid (aCSF) containing Rock inhibitor (0.5 μM), at a concentration of 100,000 cells/μl. 1 μl of cells were slowly injected into the left cortex (AP=+0.0 mm, ML=+1.8 mm, DV=−1.7 mm, from skull) of adult SCID mice (8-12 weeks) that were anesthetized with 1%-2% isoflurane mixed in oxygen. • Immunocytochemistry and flow cytometry: Immunocytochemistry was performed as described previously. See Huang et al., 2016, Sci Rep, 6:32600, doi:10.1038/srep32600. In brief, cells on coverslips were fixed in 4% neutral-buffered paraformaldehyde (PFA) for 10 minutes (min) at room temperature. Following rinsing with PBS, these cells were incubated in 0.2% Triton X-100 (in phosphate buffered saline (PBS)) for 10 min followed by 10% donkey serum (in PBS) at room temperature for 1 hour (h). The cells were then incubated with primary antibodies diluted in 5% donkey serum in 0.1% Triton X100 (in PBS) at 4° C. overnight, followed by fluorescently conjugated secondary antibodies at room temperature for 30 min. The nuclei were stained with Hoechst. Images were collected with a Nikon A1 laser-scanning confocal microscope. Flow cytometry was performed using Transcription Factor Buffer Set which is designed for transcription factor staining following manufacturer's instruction. Briefly, single cells were prepared using TrypLE Express Enzyme and fixed in the fixation buffer provided by the kit at 2-8° C. for 45 min. After 3 washings with the permeable buffer, primary antibodies were added to cells for 45 min at 2-8° C. in a light-tight box. Cells were washed three times before fluorescently conjugated secondary antibodies. Second antibodies were incubated with cells for 45 minutes at 2-8° C. in a light-tight box and followed by washing three times. After the last wash, cells were suspended in washing buffer and analyzed by flow cytometry (BD LSR or BD LSRII). […]

[2] = system: GRABNE1m sensor-expressing NE neurons; experiment: Fluorescence imaging of GRABNE1m sensor cells; format: cell-based, human; conditions: norepinephrine reuptake inhibitor treatment
[3] = system: human NE neuron progenitor cells; conditions: in neural differentiation medium
Source text: On day 5, change the medium without SB431542. […] Cells were feed daily.

Row | SMILES | sAP firing rate [1] | NE content in the supernatants (hESC-derived NE neurons) | GRABNE1m sensor intensity (extracellular norepinephrine) [2] | yield of human TH+/DBH+ NE neurons [3]
1 | Clc1cccc(Cl)c1N=C1NCCN1 [Clonidine] | reduced the sAP firing rating significantly | – | – | –
2 | CNCCCC12CCC(c3ccccc31)c1ccccc12 [Maprotiline] | – | increased the NE content | increase | –
3 | CNCCC(Oc1ccccc1OC)c1ccccc1 (stereo not shown) [Nisoxetine] | – | increased the NE content | increase | –
4 | CCOc1ccccc1OC(c1ccccc1)C1CNCCO1 (stereo not shown) [Reboxetine] | – | increased the NE content | increase | –
5 | CNCC[C@@H](Oc1ccccc1C)c1ccccc1 [Tomoxetine] | – | increased the NE content | increase | –
6 | Nc1ncnc2c1ncn2[C@@H]1O[C@@H]2COP(=O)(O)O[C@H]2[C@H]1O [cAMP] | – | – | – | boost yield
